Experimental data: patent US20220347085A1, “REPELLENT COMPOSITION AND USES” (Université Bourgogne, priority 2019, published 2022)

What was measured:
Type in all cases: in vivo
Drosophila suzukii [1] = experiment: Anesthesia test, Drosophila suzukii; settings: 2% in paraffin oil
Procedure: The devices used were similar to the devices for studying the courtship (example 1 above), except for the volume of the space into which the files were introduced, which was 45.24 or 22.62 cm^3. 9 discs of filter paper (Whatman, filter paper 42), each soaked in 10 μl of a composition comprising butyric acid and/or propionic acid and/or a derivative of propionic acid diluted in paraffin oil were deposited in the device. The different compositions used comprised, respectively, 2% propionic acid or 2% butyric acid or 5% ethyl propanoate or 10% ethyl propanoate or 30% ethyl propanoate. For each composition, the number of flies was, respectively, 30 and 24 males, 30 and 11 females for Drosophila melanogaster, and 24, 16 and 4 males, 28, 26, 6, 5 and 4 females for Drosophila suzukii. In order to avoid any contact of the flies with the soaked disks of paper, a gauze (netting) was arranged above said papers. The drosophilae could move freely on said gauze. The quantity of compound, butyric acid or propionic acid, or of ethyl propanoate (odor) volatilized in the behavior chamber was equivalent to that of the device used for the courtship. Likewise, the flies were never in direct contact with the composition (no taste perception), only with the volatile particles (olfactory perception). The flies tested were introduced simultaneously, by group, into the enclosure. Their behavior was filed for 10 minutes, and a time required for leading to anesthesia was calculated over this period, depending on the concentration of butyric acid or propionic acid or ethyl propanoate used. The flies were considered anesthetized when they stopped moving and fell on their side.

Drosophila suzukii [2] = experiment: Courtship of male Drosophila suzukii towards females, olfactory exposure; settings: compared with solvent alone, 10 min observation
Procedure: Drosophilae (Drosophila melanogaster) aged from 3 to 9 days are used for the courtship tests according to the method described above.
Naive males were isolated in tubes, individually, upon emerging from their puparium.
The females were selected to be virgin and were stored in tubes of 10 individuals. These tubes were placed in an inclined manner in incubators, for which a temperature of 25° C. was kept constant. A 12 hour-12 hour day/night cycle was applied. The courtship tests were carried out in the morning, between 1 and 3 hours after the start of the day cycle.
At the time of the test, a 6 mm disk of filter paper (Whatman, filter paper 42) was deposited per alveolus of the device for studying the courtship behavior. Each alveolus was cylindrical, transparent and closed, and of a volume of 1.52 or 0.9 cm^3. FIG. 16 is a schematic representation of an alveolus of the device used.
The paper was then soaked in 10 μl of a composition of 0.1%, 0.5% or 1% propionic acid, or 0.1%, 0.5% or 1% butyric acid, or a mixture comprising 0.1% propionic acid and 0.1% butyric acid, 0.25% propionic acid and 0.25% butyric acid or 0.5% propionic acid and 0.5% butyric acid. A gauze (netting) makes it possible to physically isolate the drosophilae from the odor. 6 pairs (one per alveolus) were observed independently. Each pair was made up of one male and one intact female, each originating from the tubes mentioned above.
The behavior was filmed for 10 minutes, under white light, using a Sony HDR-XR550 camera. Each film was recorded and then analyzed. For each concentration of the compositions used, the number of pairs of flies was, respectively, 33, 39, 27, 38, 33, 27, 12, 6 and 12.
A negative control was carried out comprising only the solvent, i.e. paraffin oil, in order to verify the absence of an effect of the solvent on the flies.
A courtship percentage was calculated, and represents the time during which the male courts the female during the 10 minutes of observation (recording). The courtship of the Drosophila suzukii is decomposed into recognizable stereotypical events, and described precisely in scientific literature (Revadi S et al., Insects 2015 [4]). Statistical tests, i.e. a Kruskal-Wallis test followed by a post-hoc Dunn's Multiple Comparison Test, were carried out (GraphFad, Prism6) in order to evaluate the influence, on the behavior, of the composition in which the paper is soaked; this involving a release of volatile compounds and an odor perceived by the drosophilae.

Drosophila suzukii [3] = experiment: Test in a box (repellent effect), Drosophila suzukii; settings: 2% in solvent, 1250 cm^3 box
Procedure: (§1) 2. Tests “in a Box” (Repellent Effect)
(§2) The sensitivity of the drosophilae was evaluated over a period of between 0 minutes and 24 hours, according to the conditions (see results) in closed and transparent boxes of 1250 cm^3.
(§3) An odor source, i.e. a composition comprising butyric acid or propionic acid in paraffin oil, was deposited on a filter paper at the base of a 50 mm petri dish. The petri dish is introduced into a test box and covered with a gauze Securimed M8202 sterile gauze pad) in order to prevent the flies from getting stuck on the oily odorous compound.
(§4) The concentrations used were 2%, 6% or 20% propionic acid.
(§5) A second Petri dish containing 5 to 6 grams of synthetic food used for breeding drosophilae in laboratories was placed in the test box, i.e. 6.5% maize flour, 6.5% (v/v) yeast extract, 1% (v/v) agar-agar, and 3% (v/v) of a 0.1% (v/v) antifungal solution (Tegosept (Apex)) in ethanol at 95%. This latter provides the water and/or the food which the flies needed during the test, and eliminated the possibility of an event due to dehydration of the individuals tested.
(§6) Drosophila melanogaster or suzukii were then introduced by groups into the test box, and moved there freely over time. Their behavior in the presence of a composition as mentioned above was observed and photographed (Apple iPhone 6S).

Drosophila melanogaster = experiment: Test in a box (repellent effect), Drosophila melanogaster; settings: 1250 cm^3 box; for courtship and copulation in the box / survival of flies in the box: 24 hours
Procedure: as §1, §2, §3, §4, §5, §6

Structure (SMILES) | time elapsed leading to anesthesia (Drosophila suzukii [1]; female flies (FIG. 17)) | time elapsed leading to anesthesia (Drosophila suzukii [1]; male flies and female flies) | proportion of courtship of males towards females (Drosophila suzukii [2]; 0.5% (v/v) in paraffin oil) | proportion of courtship of males towards females (Drosophila suzukii [2]; 1% (v/v) in paraffin oil) | repellent behavior (location of flies relative to odor source) (Drosophila suzukii [3]) | anesthesia at a distance in the box (Drosophila suzukii [3]; males and females) | time until death in the box (Drosophila suzukii [3]; males and females) | courtship and copulation in the box (Drosophila melanogaster; 2% in paraffin oil) | survival of flies in the box (Drosophila melanogaster; 2% in paraffin oil) | courtship and copulation in the box (Drosophila melanogaster; 6% in paraffin oil) | survival of flies in the box (Drosophila melanogaster; 6% in paraffin oil) | anesthesia at a distance in the box (Drosophila melanogaster; 20% in solvent) | repellent behavior (location of flies relative to odor source) (Drosophila melanogaster; 20% in solvent)
CCCC(=O)O [butyric acid] | approximately 5 minutes | approximately 5 minutes | significantly reduced | significantly reduced | remained away from the filter soaked in butyric acid | anesthetized | 20 h |  |  |  |  |  | 
CCC(=O)O [propionic acid] | approximately 4 minutes | approximately 4 minutes | significantly reduced | significantly reduced | remained preferably away from said odor | anesthetized in the hour which followed |  | court and copulate | still alive after 24 hours | court and copulate | still alive after 24 hours | anesthetized in the test hour | keep away from the filter paper
